Counter-ions that a name gives are not always drawn. Where a SMILES comes first, the peptide text is derived from it. [ ]: non-standard residue; d: D form. The star is where a group is joined. Sta = CC(C)C[C@H](N)[C@@H](O)CC(=O)O; Isovaleryl = CC(C)CC(=O)*
tested on: T1, 1N4R p-tau; assay: p-tau aggregation modulator screen of 1280-compound library (ThS fluorescence net change over 16 h); assay type: biochemical; set-up: key to PTAI>2SD: *: PTAI>2SD; key to PTAI>3SD: *: PTAI>3SD; conditions: not given;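 on ThS net change: 30 µM compound with 6 µM p-tau over 16 h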
T1 construct: made in house; host or cells: E. coli (PIMAX system)

Molecule	ThS net change	PTAI>2SD
CNCCC(Oc1ccccc1OC)c1ccccc1 (stereo not drawn) [Nisoxetine hydrochloride]	364	–
Tropisetron HCl	428	–
Lymecycline	312	–
O=C(c1ccc(OCCN2CCCCC2)cc1)c1c(-c2ccc(O)cc2)sc2cc(O)ccc12 [Raloxifene hydrochloride]	133	*

same assay, conditions: 1280-compound library screen; ThS fluorescence net change over 16 h

Molecule	ThS net change
CC=CC(=O)N(CC)c1ccccc1C (mixture of isomers) [Crotamiton]	386
CN1CCC(OC(c2ccccc2)c2ccccc2)CC1 [Diphenylpyraline hydrochloride]	380
C[C@]12CCC(=O)C=C1CC[C@@H]1[C@@H]2C(=O)C[C@@]2(C)[C@H]1CC[C@]2(O)C(=O)CO [Cortisone]	403
C1N2CN3CN1CN(C2)C3 [Methenamine]	391
Clc1cnccn1 [2-Chloropyrazine]	410
NC(=O)CN1CCCC1=O [Piracetam]	406
CC1(C)O[C@@H]2C[C@H]3[C@@H]4C[C@H](F)C5=CC(=O)C=C[C@]5(C)[C@H]4[C@@H](O)C[C@]3(C)[C@]2(C(=O)CO)O1 [Flunisolide]	378
CC(C)CC(=O)N[C@H](C(=O)N[C@H](C(=O)N[C@@H](CC(C)C)[C@@H](O)CC(=O)N[C@@H](C)C(=O)N[C@@H](CC(C)C)[C@@H](O)CC(=O)O)C(C)C)C(C)C [Pepstatin A] (Isovaleryl-VV[Sta]A[Sta]-OH)	389
NC(=O)c1cccnc1 [Nicotinamide]	406
O=C(NCCN1CCOCC1)c1ccc(Cl)cc1 [Moclobemide]	393
CCN(CC)CCOCCOC(=O)C1(c2ccccc2)CCCC1 [Carbetapentane citrate]	402
CCNCC(O)c1cccc(O)c1 (stereo not drawn) [Etilefrine hydrochloride]	407
O=C(O)Cc1ccc(-c2ccccc2)cc1 [Felbinac]	405
C=CC1=C(C(=O)O)N2C(=O)[C@@H](NC(=O)/C(=N\OCC(=O)O)c3csc(N)n3)[C@H]2SC1 [Cefixime]	408
CCCC(CCC)C(=O)O [Valproic acid]	403
CC[N+](CC)(CC)CCC(O)(c1ccccc1)C1CCCCC1.[Cl-] (stereo not drawn) [Tridihexethyl chloride]	402
[H]/N=C(/N)N[C@H]1[C@H](O)[C@@H](O)[C@H](O[C@@H]2O[C@@H](C)[C@](O)(C=O)[C@H]2O[C@@H]2O[C@@H](CO)[C@H](O)[C@@H](O)[C@@H]2NC)[C@@H](N/C(N)=N\[H])[C@@H]1O [Streptomycin sulfate]	397

same assay, conditions: 1280-compound library screen; […]

Molecule	ThS net change
CC(C)(N)Cc1ccccc1.Cl [Phentermine hydrochloride]	408
CC(Cc1ccccc1)NCCC(c1ccccc1)c1ccccc1 (stereo not drawn) [Prenylamine lactate]	401
C[N+]1(C)CCOC(O)(c2ccc(-c3ccc(C4(O)C[N+](C)(C)CCO4)cc3)cc2)C1.[Br-].[Br-] (stereo not drawn) [Hemicholinium bromide]	379

same assay, conditions: flag: p-tau aggregation inhibitor, ThS net change more than 3 SD from mean

Molecule	PTAI>3SD
COc1cc(-c2ccc(/N=N/c3ccc4c(S(=O)(=O)[O-])cc(S(=O)(=O)[O-])c(N)c4c3O)c(OC)c2)ccc1/N=N/c1ccc2c(S(=O)(=O)[O-])cc(S(=O)(=O)[O-])c(N)c2c1O.[Na+].[Na+].[Na+].[Na+] [Chicago sky blue 6B]	*

same assay, conditions: library screen, ThS fluorescence net change over 16 h with p-tau

Molecule	ThS net change
CC(C)(C)c1ccc(C(O)CCCN2CCC(C(O)(c3ccccc3)c3ccccc3)CC2)cc1 (stereo not drawn) [Terfenadine]	251
O=C1C(O)=C([C@H]2CC[C@H](c3ccc(Cl)cc3)CC2)C(=O)c2ccccc21 [Atovaquone]	266
O=c1[nH]cnc2c1ncn2[C@H]1CC[C@@H](CO)O1 [Didanosine]	321
COc1cc(C(=O)NCc2ccc(OCCN(C)C)cc2)cc(OC)c1OC [Trimethobenzamide hydrochloride]	322
COc1cc(-c2ccc(/N=N/c3ccc4c(S(=O)(=O)[O-])cc(S(=O)(=O)[O-])c(N)c4c3O)c(OC)c2)ccc1/N=N/c1ccc2c(S(=O)(=O)[O-])cc(S(=O)(=O)[O-])c(N)c2c1O.[Na+].[Na+].[Na+].[Na+] [Chicago sky blue 6B]	11
CN1CCC[C@@H]1CCO[C@](C)(c1ccccc1)c1ccc(Cl)cc1 [Clemastine fumarate]	268
CC(=O)CCCCn1c(=O)c2c(ncn2C)n(C)c1=O [Pentoxifylline]	314

same assay, conditions: p-tau aggregation modulator screen of 1280-compound library; ThS fluorescence net change

Molecule	ThS net change
NS(=O)(=O)c1cc2c(cc1C(F)(F)F)NC(Cc1ccccc1)NS2(=O)=O (stereo not drawn) [Bendroflumethiazide]	357
CC(C)(C(=O)c1cccnc1)c1cccnc1 [Metyrapone]	353
CCCOc1ccccc1-c1nc2nn[nH]c2c(=O)[nH]1 [Zaprinast]	335
Cc1ccccc1OCC(O)CO (stereo not drawn) [Mephenesin]	350
CN1CCN(C(c2ccccc2)c2ccc(Cl)cc2)CC1 (stereo not drawn) [Chlorcyclizine hydrochloride]	337
CCC[C@@H]1C[C@@H](C(=O)N[C@@H]([C@H]2O[C@H](SC)[C@H](O)[C@@H](O)[C@H]2O)[C@@H](C)O)N(C)C1 [Lincomycin hydrochloride]	367
C=CC(N)CCC(=O)O (stereo not drawn) [Vigabatrin]	362
C[C@H](O)C(=O)Nc1c(I)c(C(=O)NC(CO)CO)c(I)c(C(=O)NC(CO)CO)c1I [Iopamidol]	369
COc1ccc2[nH]cc(CCNC(C)=O)c2c1 [Melatonin]	356
CC(=O)O[C@]1(C(C)=O)CC[C@H]2[C@@H]3C=C(C)C4=CC(=O)CC[C@]4(C)[C@H]3CC[C@@]21C [Megestrol acetate]	343
CCN1CCN(C(=O)N[C@@H](C(=O)N[C@@H]2C(=O)N3[C@@H]2SC(C)(C)[C@@H]3C(=O)O)c2ccccc2)C(=O)C1=O [Piperacillin sodium salt]	354
CC(=O)N1CCN(c2ccc(OCC3COC(Cn4ccnc4)(c4ccc(Cl)cc4Cl)O3)cc2)CC1 (stereo not drawn) [Ketoconazole]	350

same assay, conditions: p-tau aggregation modulator screen of 1280-compound library; […]

Molecule	ThS net change
CN1C[C@H](C(=O)N[C@]2(C)O[C@@]3(O)[C@@H]4CCCN4C(=O)[C@H](Cc4ccccc4)N3C2=O)CC2c3cccc4[nH]cc(c34)C[C@H]21.CN1C[C@H](C(=O)N[C@]2(C)O[C@@]3(O)[C@@H]4CCCN4C(=O)[C@H](Cc4ccccc4)N3C2=O)C[C@@H]2c3cccc4[nH]cc(c34)C[C@H]21.O=C(O)C(O)C(O)C(=O)O (stereo partly drawn) [Dihydroergotamine tartrate]	342

same assay, conditions: p-tau aggregation modulator screen of the compound library, ThS fluorescence net change

Molecule	ThS net change
CC[C@H](C)C(=O)O[C@H]1CCC=C2C=C[C@H](C)[C@H](CC[C@@H]3C[C@@H](O)CC(=O)O3)[C@H]21 [Mevastatin]	497
CCCCNc1c(C(=O)OCC)c(C)nc2c1cnn2CC.Cl [Tracazolate hydrochloride]	440
CC1(C)[C@@H](OC(=O)CCC(=O)O)CC[C@]2(C)[C@H]3C(=O)C=C4[C@@H]5C[C@@](C)(C(=O)O)CC[C@]5(C)CC[C@@]4(C)[C@]3(C)CC[C@@H]12 [Carbenoxolone disodium salt]	460
CC(C)OC(=O)C(C)(C)Oc1ccc(C(=O)c2ccc(Cl)cc2)cc1 [Fenofibrate]	531
CCCCC(=O)N(Cc1ccc(-c2ccccc2-c2nnn[nH]2)cc1)[C@H](C(=O)O)C(C)C [Valsartan]	417
COc1ncnc(NS(=O)(=O)c2ccc(N)cc2)c1OC [Sulfadoxine]	513
Cc1cn([C@H]2C[C@H](N=[N+]=[N-])[C@@H](CO)O2)c(=O)[nH]c1=O [Zidovudine, AZT]	448
CN(C)C(=N)N=C(N)N [Metformin hydrochloride]	415

Reference: publication PMC7539012, “Hyperphosphorylated tau aggregation and cytotoxicity modulators screen identified prescription drugs linked to Alzheimer's disease and cognitive functions” (Scientific Reports, 2020)
